PubChem BioAssay AID2060357 (Molecular Pharmacology Branch, DTP, NCI, 2025)
Several values for one entry are separate records, joined by “and”; a condition that tells them apart may be missing. Equal values may be shown once.

System: 292921-168-R-J2-PDC spheroids with HUVEC/MSC, viability
Assay: Anticancer human tumor 292921-168-R-J2-PDC patient-derived pancreatic carcinoma cell line growth inhibition [TAK]
Conditions: for viability, T/C: stronger effect = lower value
In short: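 Tumor cells were grown as spheroids with HUVEC and hMSC (60:25:15) and treated with targeted agents combined with TAK-243 or ipatasertib. Drugs were tested in half-log steps down from near the clinical Cmax, or from 10 microM where Cmax was unknown.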

[1] = curve of first compound, second compound 0.3 µM
[2] = curve of first compound, second compound 0.949 µM
[3] = curve of first compound, second compound 3 µM
[4] = curve of first compound, second compound 9.49 µM
[5] = curve of first compound, second compound 30 µM
[6] = second compound 0.3 µM, first compound 0.000316 µM
[7] = second compound 0.3 µM, first compound 0.001 µM
[8] = second compound 0.3 µM, first compound 0.00316 µM
[9] = second compound 0.3 µM, first compound 0.01 µM
[10] = second compound 0.3 µM, first compound 0.0316 µM
[11] = second compound 0.3 µM, first compound 0.1 µM
[12] = second compound 0.949 µM, first compound 0.000316 µM
[13] = second compound 0.949 µM, first compound 0.001 µM
[14] = second compound 0.949 µM, first compound 0.00316 µM
[15] = second compound 0.949 µM, first compound 0.01 µM
[16] = second compound 0.949 µM, first compound 0.0316 µM
[17] = second compound 0.949 µM, first compound 0.1 µM
[18] = second compound 3 µM, first compound 0.000316 µM
[19] = second compound 3 µM, first compound 0.001 µM
[20] = second compound 3 µM, first compound 0.00316 µM
[21] = second compound 3 µM, first compound 0.01 µM
[22] = second compound 3 µM, first compound 0.0316 µM
[23] = second compound 3 µM, first compound 0.1 µM
[24] = second compound 9.49 µM, first compound 0.000316 µM
[25] = second compound 9.49 µM, first compound 0.001 µM
[26] = second compound 9.49 µM, first compound 0.00316 µM
[27] = second compound 9.49 µM, first compound 0.01 µM
[28] = second compound 9.49 µM, first compound 0.0316 µM
[29] = second compound 9.49 µM, first compound 0.1 µM
[30] = second compound 30 µM, first compound 0.000316 µM
[31] = second compound 30 µM, first compound 0.001 µM
[32] = second compound 30 µM, first compound 0.00316 µM
[33] = second compound 30 µM, first compound 0.01 µM
[34] = second compound 30 µM, first compound 0.0316 µM
[35] = second compound 30 µM, first compound 0.1 µM
[36] = second compound 0.3 µM, first compound 0.316 µM
[37] = second compound 0.3 µM, first compound 1 µM
[38] = second compound 0.949 µM, first compound 0.316 µM
[39] = second compound 0.949 µM, first compound 1 µM
[40] = second compound 3 µM, first compound 0.316 µM
[41] = second compound 3 µM, first compound 1 µM
[42] = second compound 9.49 µM, first compound 0.316 µM
[43] = second compound 9.49 µM, first compound 1 µM
[44] = second compound 30 µM, first compound 0.316 µM
[45] = second compound 30 µM, first compound 1 µM
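Further: spheroids exposed to drugs for seven days before readout.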

## CC(C)CC(NC(=O)CNC(=O)c1cc(Cl)ccc1Cl)B1OC(=O)CC(CC(=O)O)(C(=O)O)O1 (stereo unspecified) + CC(C)NCC(C(=O)N1CCN(c2ncnc3c2C(C)CC3O)CC1)c1ccc(Cl)cc1
[1]
  IC50: 27.6 nM
[2]
  IC50: 23.9 nM
[3]
  IC50: 23.7 nM
[4]
  IC50: 17.9 nM
[5]
  IC50: < 0.316 nM
[6]
  viability, T/C: 91.7%
[7]
  viability, T/C: 86.2%
[8]
  viability, T/C: 88.8%
[9]
  viability, T/C: 86.2%
[10]
  viability, T/C: 45.2%
[11]
  viability, T/C: 10.8%
[12]
  viability, T/C: 84.6%
[13]
  viability, T/C: 85.8%
[14]
  viability, T/C: 85.2%
[15]
  viability, T/C: 85.5%
[16]
  viability, T/C: 38.8%
[17]
  viability, T/C: 11%
[18]
  viability, T/C: 75.8%
[19]
  viability, T/C: 80.2%
[20]
  viability, T/C: 73.3%
[21]
  viability, T/C: 80.2%
[22]
  viability, T/C: 40.9%
[23]
  viability, T/C: 9.38%
[24]
  viability, T/C: 62%
[25]
  viability, T/C: 60.3%
[26]
  viability, T/C: 60.4%
[27]
  viability, T/C: 68.2%
[28]
  viability, T/C: 37.6%
[29]
  viability, T/C: 6.83%
[30]
  viability, T/C: 41.4%
[31]
  viability, T/C: 41.2%
[32]
  viability, T/C: 42.4%
[33]
  viability, T/C: 44.2%
[34]
  viability, T/C: 31.8%
[35]
  viability, T/C: 7.05%

## CCCS(=O)(=O)Nc1ccc(F)c(C(=O)c2c[nH]c3ncc(-c4ccc(Cl)cc4)cc23)c1F
Compound 0.316 µM
  viability, T/C: 113% and 128%
Compound 1 µM
  viability, T/C: 117% and 127%
Compound 3.16 µM
  viability, T/C: 108% and 113%
Compound 10 µM
  viability, T/C: 55.1% and 67.5%
Compound 31.6 µM
  viability, T/C: 99.6% and 62.3%
Compound 100 µM
  viability, T/C: 80% and 94.5%
Curve of compound
  IC50: > 100000 nM

## CC(C)n1nc(-c2ccc3oc(N)nc3c2)c2c(N)ncnc21
Compound 0.000316 µM
  viability, T/C: 101% and 103%
Compound 0.001 µM
  viability, T/C: 87.1% and 91%
Compound 0.00316 µM
  viability, T/C: 75.5% and 74.6%
Compound 0.01 µM
  viability, T/C: 61.5% and 58.3%
Compound 0.0316 µM
  viability, T/C: 40.3% and 43%
Compound 0.1 µM
  viability, T/C: 31.9% and 32.7%
Curve of compound
  IC50: 19.3 nM and 18.6 nM

## COC1CC2CCC(C)C(O)(O2)C(=O)C(=O)N2CCCCC2C(=O)OC(C(C)CC2CCC(OCCO)C(OC)C2)CC(=O)C(C)C=C(C)C(O)C(OC)C(=O)C(C)CC(C)C=CC=CC=C1C (stereo unspecified) + CC(C)NCC(C(=O)N1CCN(c2ncnc3c2C(C)CC3O)CC1)c1ccc(Cl)cc1
[1]
  IC50: 5.01 nM
[2]
  IC50: 4.77 nM
[3]
  IC50: 1.41 nM
[4]
  IC50: < 0.316 nM
[5]
  IC50: < 0.316 nM
[6]
  viability, T/C: 64.3%
[7]
  viability, T/C: 56.9%
[8]
  viability, T/C: 49.4%
[9]
  viability, T/C: 50.6%
[10]
  viability, T/C: 45.3%
[11]
  viability, T/C: 46.1%
[12]
  viability, T/C: 65.7%
[13]
  viability, T/C: 59.9%
[14]
  viability, T/C: 50.2%
[15]
  viability, T/C: 46.6%
[16]
  viability, T/C: 44.9%
[17]
  viability, T/C: 45.2%
[18]
  viability, T/C: 60%
[19]
  viability, T/C: 53.3%
[20]
  viability, T/C: 45.1%
[21]
  viability, T/C: 42.4%
[22]
  viability, T/C: 43.8%
[23]
  viability, T/C: 41.6%
[24]
  viability, T/C: 47.9%
[25]
  viability, T/C: 39.8%
[26]
  viability, T/C: 35.7%
[27]
  viability, T/C: 33.2%
[28]
  viability, T/C: 32.7%
[29]
  viability, T/C: 32.9%
[30]
  viability, T/C: 33.4%
[31]
  viability, T/C: 30.6%
[32]
  viability, T/C: 29%
[33]
  viability, T/C: 26.3%
[34]
  viability, T/C: 26.2%
[35]
  viability, T/C: 24.3%

## COc1c(OCCCN2CCOCC2)ccc2c3n(c(=NC(=O)c4cnc(N)nc4)nc12)CCN3 + CC(C)NCC(C(=O)N1CCN(c2ncnc3c2C(C)CC3O)CC1)c1ccc(Cl)cc1
[1]
  IC50: 4.15 nM
[2]
  IC50: < 3.16 nM
[3]
  IC50: < 3.16 nM
[4]
  IC50: < 3.16 nM
[5]
  IC50: < 3.16 nM
[8]
  viability, T/C: 55.2%
[9]
  viability, T/C: 33.2%
[10]
  viability, T/C: 19.1%
[11]
  viability, T/C: 13.5%
[36]
  viability, T/C: 10.2%
[37]
  viability, T/C: 9.21%
[14]
  viability, T/C: 43.5%
[15]
  viability, T/C: 27.5%
[16]
  viability, T/C: 20%
[17]
  viability, T/C: 13.1%
[38]
  viability, T/C: 9.66%
[39]
  viability, T/C: 8.79%
[20]
  viability, T/C: 30.2%
[21]
  viability, T/C: 21.4%
[22]
  viability, T/C: 15.2%
[23]
  viability, T/C: 12.4%
[40]
  viability, T/C: 9.94%
[41]
  viability, T/C: 8.66%
[26]
  viability, T/C: 26.4%
[27]
  viability, T/C: 15.9%
[28]
  viability, T/C: 12%
[29]
  viability, T/C: 9.29%
[42]
  viability, T/C: 8.18%
[43]
  viability, T/C: 7.72%
[32]
  viability, T/C: 19.8%
[33]
  viability, T/C: 14.1%
[34]
  viability, T/C: 10.3%
[35]
  viability, T/C: 7.72%
[44]
  viability, T/C: 6.76%
[45]
  viability, T/C: 7.15%

## Cc1nc(NC(=O)N2CCCC2C(N)=O)sc1-c1ccnc(C(C)(C)C(F)(F)F)c1 (stereo unspecified) + CC(C)NCC(C(=O)N1CCN(c2ncnc3c2C(C)CC3O)CC1)c1ccc(Cl)cc1
[1]
  IC50: 295 nM
[2]
  IC50: 185 nM
[3]
  IC50: 184 nM
[4]
  IC50: 70.8 nM
[5]
  IC50: < 31.6 nM
[10]
  viability, T/C: 75.5%
[11]
  viability, T/C: 67.2%
[36]
  viability, T/C: 47.2%
[37]
  viability, T/C: 34.2%
Second compound 0.3 µM, first compound 3.16 µM
  viability, T/C: 26.2%
Second compound 0.3 µM, first compound 10 µM
  viability, T/C: 20%
[16]
  viability, T/C: 78.5%
[17]
  viability, T/C: 58.4%
[38]
  viability, T/C: 42.8%
[39]
  viability, T/C: 30.5%
Second compound 0.949 µM, first compound 3.16 µM
  viability, T/C: 24.1%
Second compound 0.949 µM, first compound 10 µM
  viability, T/C: 19.6%
[22]
  viability, T/C: 68.5%
[23]
  viability, T/C: 61.7%
[40]
  viability, T/C: 39.3%
[41]
  viability, T/C: 27.1%
Second compound 3 µM, first compound 3.16 µM
  viability, T/C: 23.4%
Second compound 3 µM, first compound 10 µM
  viability, T/C: 15.3%
[28]
  viability, T/C: 59.8%
[29]
  viability, T/C: 46.8%
[42]
  viability, T/C: 27.8%
[43]
  viability, T/C: 21.1%
Second compound 9.49 µM, first compound 3.16 µM
  viability, T/C: 17.8%
Second compound 9.49 µM, first compound 10 µM
  viability, T/C: 12.7%
[34]
  viability, T/C: 41.1%
[35]
  viability, T/C: 33.2%
[44]
  viability, T/C: 23.9%
[45]
  viability, T/C: 16.4%
Second compound 30 µM, first compound 3.16 µM
  viability, T/C: 13.4%
Second compound 30 µM, first compound 10 µM
  viability, T/C: 9.1%

## CC(C)(C)c1nc(-c2cccc(NS(=O)(=O)c3c(F)cccc3F)c2F)c(-c2ccnc(N)n2)s1
Compound 0.0316 µM
  viability, T/C: 109% and 122%
Compound 0.1 µM
  viability, T/C: 117% and 139%
Compound 0.316 µM
  viability, T/C: 111% and 110%
Compound 1 µM
  viability, T/C: 85% and 84.2%
Compound 3.16 µM
  viability, T/C: 62.5% and 67.1%
Compound 10 µM
  viability, T/C: 34% and 30.9%
Curve of compound
  IC50: 4980 nM
